Test results reported in patent publication US5212179A, “Piperidine derivatives” (John Wyeth and Brother Limited, priority 1980, dated 1993).
One block for each molecule: values may come before it.

What was measured:
[1] = tested on: p-chloroamphetamine (pCA) induced hyperactivity; experiment: Inhibition of p-chloroamphetamine (pCA) induced hyperactivity in mice; assay type: in vivo; conditions: Mus musculus, po, female mice, 50 mg/kg po, pCA 20 mg/kg ip, 10-30 minutes post pCA
Protocol: The following test procedure was used to test for ability to inhibit p-chloroamphetamine induced hyperactivity.
Three groups of 4 female mice (20-24 g) receive the test compounds (50 mg/kg po) and a fourth group the requisite volume of vehicle. Thirty minutes later all the animals are given 20 mg/kg p-chloroamphetamine (pCA) ip. The grouped mice are placed immediately in square plastic cages in activity monitors and their motor activity recorded over the period 10-30 minutes post pCA. This procedure is repeated three more times so that four groups of mice are used per treatment and each activity monitor is used with all treatments in turn. The inhibition of pCA induced hyperactivity is calculated thus: [formula] where C=mean activity of control groups 10-30 minutes post pCA.
T=mean activity of treated groups 10-30 minutes post pCA.
This test is used as an in vivo screen for detection of 5-hydroxytryptamineuptake inhibitors.
Compounds giving >50% inhibition are considered of special interest. In such a test the following compounds were particularly active: […]

[2] = tested on: 5-hydroxy-L-tryptophan (5-HTP) induced behavioural syndrome; experiment: Potentiation of 5-HTP induced behavioural syndrome, dose/response study in rats; assay type: in vivo; conditions: Rattus norvegicus, ip, 5-HTP 70 mg/kg i.p.
Protocol: (§1) Thus, this test can be used as an indication of in vivo 5-HT uptake inhibition.
b) Dose/Response study in rats
Groups of 6 male rats (150 g) were dosed with test compound suspended in HPMC. Thirty minutes later 5-HTP (70 mg/kg 5 i.p.) was given and the number of signs/rat recorded between 20 and 35 minutes post 5-HTP. Linear regression analysis of the results was performed and the ED50 calculated from this.

[3] = tested on: uptake of ^3 H noradrenaline into rat brain synaptosomes; experiment: Inhibition of 3H noradrenaline uptake into rat brain synaptosomes; assay type: biochemical, male Sprague Dawley rats; conditions: 37° C., 4 minutes, read-out: IC50 NA uptake
Protocol: (§2) The test procedure involved obtaining synaptosomal preparations from male Sprague Dawley rats according to the method of Grey and Whittaker* as modified by Wood and Wyllie.** Aliquots of the synaptosomal preparation were then incubated with tritrated noradrenaline (NA) or 5-HT at a temperature of 37° C. for 4 minutes. The active synaptosomal accumulation of labelled substrate was measured by filtration and scintillation counting. The effect at a range of concentrations of test compound enabled IC50 values and selectivity ratios to be calculated.
(§3) * Grey and Whittaker,--J. Anat. 96 79 (1962)
(§4) ** Wood and Wyllie, J. Neurochemistry, 37, 795 (1981)

[4] = tested on: neuronal uptake of 5-hydroxytryptamine into slices of cerebral cortex; experiment: Inhibition of 5-hydroxytryptamine (5-HT) uptake in brain slices; assay type: biochemical; conditions: rat cerebral cortex slices, relative to imipramine
Protocol: Compounds of formula I were tested for ability to inhibit 5-hydroxytryptamine (5-HT) uptake in brain slices using the following procedure:
Concentration-response curves for the test compound and for the standard agent, imipramine, are obtained. The potency of the test compound is expressed in proportion to that of imipramine. Thus, the potency ratio for the test compound [formula]

[5] = tested on: uptake of 5-HT into rat brain synaptosomes; experiment: Inhibition of 5-HT uptake into rat brain synaptosomes; assay type: biochemical, male Sprague Dawley rats
Protocol: as §2, §3, §4

[6] = tested on: 5-hydroxy-L-tryptophan (5-HTP) induced behavioural syndrome; experiment: Potentiation of 5-HTP induced behavioural syndrome, dose/response study in mice; assay type: in vivo; conditions: Mus musculus, po, 5-HTP 80 mg/kg i.p.
Protocol: as §1
a) Dose/response study in mice
Groups of 12 (2 subgroups of 6) female mice (18-22g) were used per dose, each group being housed in a separate cage for the duration of the experiment. Mice were dosed p.o. with either test compound or vehicle (0.5% HPMC) and 30 minutes later received a threshold dose of 5-HTP (80 mg/kg i.p.) and were placed in perspex cylinders (12" diameter).
The dose that produced the syndrome in 50% of the mice was calculated using the method of Litchfield and Wilcoxon, […]

[7] = tested on: p-chloroamphetamine (pCA)-induced stereotypy; experiment: Inhibition of p-chloroamphetamine (pCA)-induced stereotypy in rats; assay type: in vivo, male Sprague-Dawley rats; conditions: for ED50: Rattus norvegicus, po, 90 minutes before pCA 10 mg/kg i.p., results for succinate salt corrected for amount of active material, read-out: ED50 (dose required to produce 50% inhibition of pCA induced stereotypy); for ED50 / antagonism of pCA-induced stereotypy (in words): rats, p.o.; for antagonism of pCA-induced stereotypy (in words): 5 dose levels
Protocol: Representative compounds of formula IA were tested for their ability to inhibit pCA induced syndrome in rats by the standard procedure described below:
Inhibition of p-chloroamphetamine (pCA)-induced stereotypy
Vehicle or drug (5 dose levels) were administered p.o. to six groups of 6-8 male Sprague-Dawley rats (300-400 g) followed, 90 minutes later, by pCA (10 mg/kg i.p.). The animals were then placed in individual observation chambers and, 30 minutes after pCA administration, the intensity of the pCA-induced 5-HT syndrome was assessed according to the following scoring system: […]
Therefore, the maximum score for each animal was 10.
The inhibition of pCA induced stereotypy is calculated for each dose level as follows: [formula] where C=control group total score at 30 minutes post pCA.
T=group total score of treated group at 30 minutes post pCA.
For each dose a % effect is calculated.
The results obtained from the tests using 5 different dose levels of the drug allow the ED50 value (i.e. the dose required to produce 50% inhibition of pCA induced stereotypy) to be calculated.
The test was carried out using the free bases for compound C. Compound B was tested in the form of the succinate salt and the results corrected for amount of active material.

[8] = tested on: 5-hydroxy-L-tryptophan induced behavioural syndrome; experiment: Potentiation of 5-hydroxytryptophan (5-HTP)-induced behaviour in rats; assay type: in vivo, male Sprague-Dawley rats; conditions: Rattus norvegicus, po, 5-HTP 50 mg/kg s.c., citrate salt, corrected for amount of base
Protocol: The compound (C) was also tested for its ability to potentiate 5-hydroxy-L-tryptophan induced behavioural syndrome in rats. The test procedure is described below
Potentiation of 5-hydroxytryptophan (5-HTP)-induced behaviour
Groups of 10 male Sprague-Dawley rats (310-360 g) were dosed p.o. with vehicle or drugs. Ninety minutes later 5-HTP (50 mg/kg s.c.) was administered and the animals placed in individual observation chambers (peripheral decarboxylation was prevented by 25 mg/kg i.p. carbidopa administered 60 minutes before 5-HTP). Head shakes were counted over the period 30-45 minutes after 5-HTP and the intensity of the 5-HT syndrome was scored immediately afterwards using the system described for the pCA procedure above. Percentage potentiation of syndrome was calculated as follows: […]
Percentage potentiation was calculated from the following: [formula]

SMILES: O=C(NC(=O)c1ccccc1)NC1CCN(Cc2cccc3ccccc23)CC1 [Example 2, 1-Benzoyl-3-[1-(naphth-1-ylmethyl)piperid-4-yl]urea]
inhibition in vivo at 50 mg/kg [1]: 56.4%

SMILES: CCc1ccc(CN2CCC(NC(=O)NC(=O)c3ccccc3)CC2)cc1 [Example 15, 1-Benzoyl-3-[1-(4-ethylbenzyl)piperid-4-yl]urea]
inhibition in vivo at 50 mg/kg [1]: 72.9%

SMILES: Cc1ccc(CN2CCC(NC(=O)NC(=O)c3ccccc3)CC2)cc1C [Example 6, 1-Benzoyl-3-[1-(3,4-dimethylbenzyl)piperid-4-yl]urea]
inhibition in vivo at 50 mg/kg [1]: 68.9%

SMILES: O=C(NC(=O)c1ccccc1)NC1CCN(Cc2ccc3c(c2)CCC3)CC1 [Example 20, 1-Benzoyl-3-[1-(indan-5-ylmethyl)-piperid-4-yl]urea]
inhibition in vivo at 50 mg/kg [1]: 59.3%

IC50 [3]: 20 µM | IC50 ([5]; 37° C., 4 minutes): 0.044 µM
SMILES: O=C(NC(=O)c1ccccc1)NC1CCN(Cc2ccc3ccccc3c2)CC1 [Example 1, 1-Benzoyl-3-[1-(naphth-2-ylmethyl)piperid-4-yl]urea]
ED50 [2]: 5.3 mg/kg | potency ratio (imipramine=1.0) [4]: 8.8 | inhibition in vivo at 50 mg/kg [1]: 67.5% | Selectivity Ratio ([5]; 5-HT uptake relative to NA uptake): 455 | ED50 [6]: 7.2 mg/kg

SMILES: CN(C)CCCN1c2ccccc2CCc2ccc(Cl)cc21 [clomipramine, reference compound]
ED50 [2]: 39.2 mg/kg | ED50 [6]: 18 mg/kg

SMILES: O=C(NC(=O)c1ccncc1)NC1CCN(Cc2ccc3cc(F)ccc3c2)CC1 [Example 63, N-[[[1-[(6-Fluoro-2-naphthalenyl)methyl]-4-piperidinyl]amino]carbonyl]-4-pyridinecarboxamide]
ED50 [7]: 3.8 mg/kg | antagonism of pCA-induced stereotypy (in words) [7]: antagonised pCA-induced stereotypy in a dose-dependent manner

SMILES: CC(C)c1ccc(CN2CCC(NC(=O)NC(=O)c3ccccc3)CC2)cc1 [Example 3, 1-Benzoyl-3-[1-(4-isopropylbenzyl)piperid-4-yl]urea]
inhibition in vivo at 50 mg/kg [1]: 49%

SMILES: O=C(NC(=O)c1ccccc1)NC1CCN(Cc2ccc3c(c2)CCCC3)CC1 [Example 14, 1-Benzoyl-3-[1-(5,6,7,8-tetrahydro-naphth-2-ylmethyl)piperid-4-yl]urea]
inhibition in vivo at 50 mg/kg [1]: 69.4%

SMILES: CC(c1ccc2ccccc2c1)N1CCC(NC(=O)NC(=O)c2ccccc2)CC1 (centres unmarked) [Example 21, 1-Benzoyl-3-[1-(1-(naphth-2-yl)ethyl)-piperid-4-yl]urea]
inhibition in vivo at 50 mg/kg [1]: 71.7%

SMILES: CN(C)CCCN1c2ccccc2CCc2ccccc21 [imipramine, reference compound]
potency ratio (imipramine=1.0) [4]: 1.0

SMILES: O=C(NC(=O)c1cccnc1)NC1CCN(Cc2ccc3cc(F)ccc3c2)CC1 [Example 62, N[[[1-[(6-Fluoro-2-naphthalenyl)methyl]-4-piperidinyl]amino]carbonyl]-3-pyridinecarboxamide]
ED50 [8]: 5 mg/kg | inhibition of syndrome ([7]; At 50 mg/kg): 99% | ED50 [7]: 2.5 mg/kg | antagonism of pCA-induced stereotypy (in words) [7]: antagonised pCA-induced stereotypy in a dose-dependent manner
